{"source": "patent US20060264384A1", "about": "“Compositions and methods for treatment for neoplasms” (priority 2005, published 2006)", "origin": "cited, not measured here"}
{"smiles": "CCc1c2c(nc3ccc(OC(=O)N4CCC(N5CCCCC5)CC4)cc13)-c1cc3c(c(=O)n1C2)COC(=O)[C@]3(O)CC", "note": "[Irinotecan]", "values": [{"measurement": "solubility in organic solvents", "result": "slightly soluble"}, {"measurement": "solubility in water", "result": "slightly soluble"}]}
{"smiles": "CC[C@@]1(O)C(=O)OCc2c1cc1n(c2=O)Cc2cc3c(CN(C)C)c(O)ccc3nc2-1", "note": "[Topotecan]", "values": [{"measurement": "solubility in water", "result": "up to 1 mg/ml"}]}
{"smiles": "CCN(CC)C(=S)SSC(=S)N(CC)CC", "note": "[Disulfiram]", "values": [{"measurement": "solubility in organic solvents", "result": "soluble in solvents such as alcohol, ether, acetone, and benzene"}, {"measurement": "solubility in water", "result": "barely soluble in water"}]}
